Here are results for 36 compounds from patent publication US12617814B2, “Neuroactive steroids and methods of use thereof” (Sage Therapeutics, LLC, priority 2013, dated 2026).

The test addresses NMDA receptor (GRIN1/GRIN2A) (Homo sapiens, UniProt Q05586+Q12879). Kind of test: NMDA potentiation, two electrode voltage clamp (TEVC) of Xenopus oocytes expressing NMDA receptor. The test is classed as cell-based. The conditions noted are these: 10 μM compound, 3 μM Glutamate and Glycine. As to the method:
NMDA potentiation was assessed using either whole cell patch clamp of mammalian cells which expressed NMDA receptors, or using two-electrode voltage clamp (TEVC) of Xenopus Laevis oocytes expressing NMDA receptors.
The Two Electrode Voltage Clamp (TEVC) technique was used to investigate the effects of compounds (10 μM) on the NMDA receptor (GRIN1/GRIN2A) expressed in Xenopus oocytes. Glutamate/Glycine peak and steady-state currents were recorded from oocytes that expressed the NMDA receptor and the modulatory effects of the test items on these currents were investigated.
Ovaries were harvested from Xenopus Laevis females that had been deeply anesthetized by cooling at 4° C. and immersion in Tricaine methanesulfonate (MS-222 at a concentration of 150 mg/L) in sodium bicarbonate (300 mg/L). Once anesthetized the animal was decapitated and pithed following the rules of animal rights from the Geneva canton. A small piece of ovary was isolated for immediate preparation while the remaining part was placed at 4° C. in a sterile Barth solution containing in mM NaCl 88, KCl 1, NaHCO3 2.4, HEPES 10, MgSO4·7H2O 0.82, Ca(NO3)2·4H2O 0.33, CaCl2·6H2O 0.41, at pH 7.4, and supplemented with 20 μg/ml of kanamycin, 100 unit/ml penicillin and 100 μg/ml streptomycin. All recordings were performed at 18° C. and cells were super-fused with medium containing in mM: NaCl 82.5, KCl 2.5, HEPES 5, CaCl2·2H2O, ·6H2O 1, pH 7.4.
Oocytes were injected with either cDNAs encoding for the human GRIN1 and GRIN2A subunits, using a proprietary automated injection device (Hogg et al., J. Neurosci. Methods, (2008) 169: 65-75) and receptor expression was assessed using electrophysiology at least two days later. The ratio of cDNA injection for GRIN1 and GRIN2A was 1:1. Electrophysiological recordings were made using an automated process equipped with standard TEVC and data were captured and analyzed using a proprietary data acquisition and analysis software running under Matlab (Mathworks Inc.). The membrane potential of the oocytes was maintained at −80 mV throughout the experiments. To explore the effects of proprietary compounds, currents were evoked by applying 3 μM Glutamate and […] Glycine for 10 s. Oocytes were then washed for 90 s before being exposed to the test article at a concentration of 10 μM for 120 s. Following this, 3 μM Glutamate and […] Glycine were immediately reapplied for 10 s. Potentiation of both the peak current and the steady state current was assessed. For statistical analysis values were computed either with Excel (Microsoft) or Matlab (Mathworks Inc.). To obtain mean measurements with standard deviations, all experiments were carried out using at least three cells.
Glutamate was prepared as a concentrated stock solution ([…]) in water and then diluted in the recording medium to obtain the desired test concentration. Glycine was prepared as a stock solution at 1 M in water. Compounds were prepared as stock solution ([…]) in DMSO and then diluted in the recording medium to obtain the desired test concentration.

SMILES strings stand for the structures. Some results are limits rather than exact numbers.

NMDA receptor (GRIN1/GRIN2A), sequence (Q12879 23-1464, other chains not shown): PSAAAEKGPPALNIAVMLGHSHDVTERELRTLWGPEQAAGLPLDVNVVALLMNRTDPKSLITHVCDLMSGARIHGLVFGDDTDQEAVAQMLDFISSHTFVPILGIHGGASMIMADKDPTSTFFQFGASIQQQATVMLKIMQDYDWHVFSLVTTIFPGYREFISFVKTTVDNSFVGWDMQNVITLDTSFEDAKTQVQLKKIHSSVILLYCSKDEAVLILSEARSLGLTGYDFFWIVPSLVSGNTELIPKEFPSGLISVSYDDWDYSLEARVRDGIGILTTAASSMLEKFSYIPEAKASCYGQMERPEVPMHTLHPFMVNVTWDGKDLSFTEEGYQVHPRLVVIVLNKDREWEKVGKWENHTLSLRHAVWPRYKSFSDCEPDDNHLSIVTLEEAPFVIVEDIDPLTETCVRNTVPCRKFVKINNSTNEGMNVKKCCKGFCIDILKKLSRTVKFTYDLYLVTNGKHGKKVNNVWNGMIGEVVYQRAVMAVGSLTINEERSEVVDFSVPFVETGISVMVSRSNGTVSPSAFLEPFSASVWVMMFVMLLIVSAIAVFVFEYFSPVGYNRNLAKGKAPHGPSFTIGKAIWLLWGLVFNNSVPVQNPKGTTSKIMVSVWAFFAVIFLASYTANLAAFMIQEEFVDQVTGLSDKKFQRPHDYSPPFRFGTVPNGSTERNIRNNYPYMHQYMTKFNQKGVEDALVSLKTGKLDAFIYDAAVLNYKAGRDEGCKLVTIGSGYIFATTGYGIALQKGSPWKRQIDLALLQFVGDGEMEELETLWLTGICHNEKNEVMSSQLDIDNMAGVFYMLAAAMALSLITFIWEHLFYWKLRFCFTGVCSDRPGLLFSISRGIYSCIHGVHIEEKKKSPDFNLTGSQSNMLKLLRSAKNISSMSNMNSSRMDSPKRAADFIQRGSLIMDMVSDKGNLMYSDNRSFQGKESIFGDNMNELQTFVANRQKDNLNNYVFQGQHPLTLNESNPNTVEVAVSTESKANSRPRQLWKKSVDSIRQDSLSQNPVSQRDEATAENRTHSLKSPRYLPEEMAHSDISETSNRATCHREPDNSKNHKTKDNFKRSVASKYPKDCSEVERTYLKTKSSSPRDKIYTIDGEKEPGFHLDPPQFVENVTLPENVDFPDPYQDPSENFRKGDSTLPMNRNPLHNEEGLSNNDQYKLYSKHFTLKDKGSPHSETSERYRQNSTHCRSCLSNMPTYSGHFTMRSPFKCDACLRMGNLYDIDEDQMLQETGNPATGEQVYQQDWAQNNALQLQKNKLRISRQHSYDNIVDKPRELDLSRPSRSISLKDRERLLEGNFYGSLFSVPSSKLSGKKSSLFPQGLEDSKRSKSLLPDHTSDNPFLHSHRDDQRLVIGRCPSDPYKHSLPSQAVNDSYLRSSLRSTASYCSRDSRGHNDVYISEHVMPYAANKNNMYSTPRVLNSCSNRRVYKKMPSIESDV

For `C[C@H](CC[C@](C)(O)C(F)(F)F)[C@H]1CC[C@H]2[C@@H]3CC=C4C[C@@](C)(O)CC[C@]4(C)[C@H]3CC[C@]12C` [Compound 3-5], the activation at 10 µM lay in the range of 10 to 50%.

For the compound `C=C[C@@](C)(O)CC[C@@H](C)[C@H]1CC[C@H]2[C@@H]3CC[C@H]4C[C@@](C)(O)CC[C@]4(C)[C@H]3CC[C@]12C` [Compound 10-11], the activation at 10 µM is 10 to 50%.

In the case of `C=CC(C)(O)CC[C@@H](C)[C@H]1CC[C@H]2[C@@H]3CC[C@H]4C[C@@](C)(O)CC[C@]4(C)[C@H]3CC[C@]12C` (stereo partly drawn) [Compound 10-7], the activation at 10 µM is 50 to 100%.

On to `CC(C)[C@@](C)(O)CC[C@@H](C)[C@H]1CC[C@H]2[C@@H]3CC=C4C[C@@](C)(O)CC[C@]4(C)[C@H]3CC[C@]12C` [Compound 8-7], for which the activation at 10 µM lay within 50 to 100%.

In the case of `CC(C)[C@](C)(O)CC[C@@H](C)[C@H]1CC[C@H]2[C@@H]3CC[C@H]4C[C@@](C)(O)CC[C@]4(C)[C@H]3CC[C@]12C` [Compound 8-6], the activation at 10 µM was in the range of 10 to 50%.

Turning to `C=CC(C)(O)CC[C@@H](C)[C@H]1CC[C@H]2[C@@H]3CC=C4C[C@@](C)(O)CC[C@]4(C)[C@H]3CC[C@]12C` (stereo partly drawn) [Compound 10-12], the activation at 10 µM is 10 to 50%.

As to `C=CC[C@@](C)(O)CC[C@@H](C)[C@H]1CC[C@H]2[C@@H]3CC=C4C[C@@](C)(O)CC[C@]4(C)[C@H]3CC[C@]12C` [Compound 6-8], the activation at 10 µM was 10 to 50%.

Consider `CCCC[C@](C)(O)CC[C@@H](C)[C@H]1CC[C@H]2[C@@H]3CC=C4C[C@@](C)(O)CC[C@]4(C)[C@H]3CC[C@]12C` [Compound 7-4], for which the activation at 10 µM lay within 50 to 100%.

As to `C[C@H](CCC(C)(O)CCCO)[C@H]1CC[C@H]2[C@@H]3CC=C4C[C@@](C)(O)CC[C@]4(C)[C@H]3CC[C@]12C` (stereo partly drawn) [Compound 6-3], the activation at 10 µM is 50 to 100%.

On to `CC(C)[C@@](C)(O)CC[C@@H](C)[C@H]1CC[C@H]2[C@@H]3CC[C@H]4C[C@@](C)(O)CC[C@]4(C)[C@H]3CC[C@]12C` [Compound 8-5], for which the activation at 10 µM was in the range of 10 to 50%.

Turning to `CCCC[C@](C)(O)CC[C@@H](C)[C@H]1CC[C@H]2[C@@H]3CC[C@H]4C[C@@](C)(O)CC[C@]4(C)[C@H]3CC[C@]12C` [Compound 7-6], the activation at 10 µM is more than 100%.

On to `C[C@H](CC[C@@](C)(O)CCO)[C@H]1CC[C@H]2[C@@H]3CC=C4C[C@@](C)(O)CC[C@]4(C)[C@H]3CC[C@]12C` [Compound 10-20], for which the activation at 10 µM lay within 10 to 50%.

Regarding `C[C@H](CC[C@@](C)(O)C(F)(F)F)[C@H]1CC[C@H]2[C@@H]3CC[C@H]4C[C@@](C)(O)CC[C@]4(C)[C@H]3CC[C@]12C` [Compound 3-7], the activation at 10 µM was in the range of 10 to 50%.

Consider `CC[C@](C)(O)CC[C@@H](C)[C@H]1CC[C@H]2[C@@H]3CC[C@H]4C[C@@](C)(O)CC[C@]4(C)[C@H]3CC[C@]12C` [Compound 4-10], for which the activation at 10 µM lay within 10 to 50%.

For `C#C[C@](C)(O)CC[C@@H](C)[C@H]1CC[C@H]2[C@@H]3CC=C4C[C@@](C)(O)CC[C@]4(C)[C@H]3CC[C@]12C` [Compound 10-3], the activation at 10 µM lay within 10 to 50%.

`C[C@H](CC[C@@](C)(O)C1CC1)[C@H]1CC[C@H]2[C@@H]3CC[C@H]4C[C@@](C)(O)CC[C@]4(C)[C@H]3CC[C@]12C` [Compound 9-7]: the activation at 10 µM was 10 to 50%.

Take `C[C@H](CC(F)(F)[C@H](C)O)[C@H]1CC[C@H]2[C@@H]3CC=C4C[C@@](C)(O)CC[C@]4(C)[C@H]3CC[C@]12C` [Compound 11-15]: the activation at 10 µM fell in the range of 10 to 50%.

For the compound `C=CCC(C)(O)CC[C@@H](C)[C@H]1CC[C@H]2[C@@H]3CC[C@H]4C[C@@](C)(O)CC[C@]4(C)[C@H]3CC[C@]12C` (stereo partly drawn) [Compound 6-6], the activation at 10 µM fell in the range of 50 to 100%.

Consider `C[C@H](CC[C@](C)(O)CCO)[C@H]1CC[C@H]2[C@@H]3CC=C4C[C@@](C)(O)CC[C@]4(C)[C@H]3CC[C@]12C` [Compound 10-21], for which the activation at 10 µM was in the range of 10 to 50%.

In the case of `C[C@H](CCC(C)(O)C(F)(F)F)[C@H]1CC[C@H]2[C@@H]3CC=C4C[C@@](C)(O)CC[C@]4(C)[C@H]3CC[C@]12C` (stereo partly drawn) [Compound 3-2], the activation at 10 µM is more than 100%.

Regarding `C[C@H](CC[C@](C)(O)C1CC1)[C@H]1CC[C@H]2[C@@H]3CC[C@H]4C[C@@](C)(O)CC[C@]4(C)[C@H]3CC[C@]12C` [Compound 9-8], the activation at 10 µM lay within 10 to 50%.

As for `C[C@H](CCC(C)(O)CCO)[C@H]1CC[C@H]2[C@@H]3CC=C4C[C@@](C)(O)CC[C@]4(C)[C@H]3CC[C@]12C` (stereo partly drawn) [Compound 10-13], the activation at 10 µM lay in the range of 50 to 100%.

On to `CCCC[C@@](C)(O)CC[C@@H](C)[C@H]1CC[C@H]2[C@@H]3CC=C4C[C@@](C)(O)CC[C@]4(C)[C@H]3CC[C@]12C` [Compound 7-5], for which the activation at 10 µM was 10 to 50%.

For the compound `CC[C@]1(O)CC[C@@]2(C)C(=CC[C@H]3[C@@H]4CC[C@H]([C@H](C)CCC(O)C(F)(F)F)[C@@]4(C)CC[C@@H]32)C1` (stereo partly drawn) [Compound 2-4], the activation at 10 µM was more than 100%.

Turning to `C#C[C@@](C)(O)CC[C@@H](C)[C@H]1CC[C@H]2[C@@H]3CC[C@H]4C[C@@](C)(O)CC[C@]4(C)[C@H]3CC[C@]12C` [Compound 10-9], the activation at 10 µM fell in the range of 10 to 50%.

For the compound `C[C@H](CCC(C)(O)C1CC1)[C@H]1CC[C@H]2[C@@H]3CC[C@H]4C[C@@](C)(O)CC[C@]4(C)[C@H]3CC[C@]12C` (stereo partly drawn) [Compound 9-6], the activation at 10 µM was in the range of 50 to 100%.

For the compound `C=C[C@@](C)(O)CC[C@@H](C)[C@H]1CC[C@H]2[C@@H]3CC=C4C[C@@](C)(O)CC[C@]4(C)[C@H]3CC[C@]12C` [Compound 10-12B], the activation at 10 µM lay within 10 to 50%.

With `C[C@H](CC[C@@](C)(O)C(F)(F)F)[C@H]1CC[C@H]2[C@@H]3CC=C4C[C@@](C)(O)CC[C@]4(C)[C@H]3CC[C@]12C` [Compound 3-6], the activation at 10 µM lay within 50 to 100%.

In the case of `C=C[C@](C)(O)CC[C@@H](C)[C@H]1CC[C@H]2[C@@H]3CC=C4C[C@@](C)(O)CC[C@]4(C)[C@H]3CC[C@]12C` [Compound 10-12A], the activation at 10 µM lay within 10 to 50%.

For the compound `C[C@H](CC[C@@](C)(O)CCO)[C@H]1CC[C@H]2[C@@H]3CC[C@H]4C[C@@](C)(O)CC[C@]4(C)[C@H]3CC[C@]12C` [Compound 10-16], the activation at 10 µM was 10 to 50%.

On to `CCC[C@](C)(O)CC[C@@H](C)[C@H]1CC[C@H]2[C@@H]3CC[C@H]4C[C@@](C)(O)CC[C@]4(C)[C@H]3CC[C@]12C` [Compound 5-7], for which the activation at 10 µM was in the range of 50 to 100%.

`C#C[C@@](C)(O)CC[C@@H](C)[C@H]1CC[C@H]2[C@@H]3CC=C4C[C@@](C)(O)CC[C@]4(C)[C@H]3CC[C@]12C` [Compound 10-4]: the activation at 10 µM was 10 to 50%.

For the compound `C[C@H](CC[C@](C)(O)C(F)(F)F)[C@H]1CC[C@H]2[C@@H]3CC[C@H]4C[C@@](C)(O)CC[C@]4(C)[C@H]3CC[C@]12C` [Compound 3-8], the activation at 10 µM was 50 to 100%.

For `CC[C@]1(O)CC[C@@]2(C)C(=CC[C@H]3[C@@H]4CC[C@H]([C@H](C)CC[C@@H](O)C(F)(F)F)[C@@]4(C)CC[C@@H]32)C1` [Compound 2-7], the activation at 10 µM is more than 100%.

As to `COCC[C@@](C)(O)CC[C@@H](C)[C@H]1CC[C@H]2[C@@H]3CC=C4C[C@@](C)(O)CC[C@]4(C)[C@H]3CC[C@]12C` [Compound 10-23], the activation at 10 µM was 10 to 50%.

Consider `CC[C@@](C)(O)CC[C@@H](C)[C@H]1CC[C@H]2[C@@H]3CC=C4C[C@@](C)(O)CC[C@]4(C)[C@H]3CC[C@]12C` [Compound 4-11], for which the activation at 10 µM was more than 100%.
